US20170050957A1, “4-AMINO-6-(HETEROCYCLIC)PICOLINATES AND 6-AMINO-2-(HETEROCYCLIC)PYRIMIDINE-4-CARBOXYLATES AND THEIR USE AS HERBICIDES” (Dow AgroSciences LLC, priority 2013, published 2017)
Like-named read-outs stand apart in the source and are kept apart here.

Legend:
[1] = tested on: Key Broadleaf Weed and Crop Species; assay: Post-emergent Test II herbicidal activity (Table 15); type: in vivo; conditions: post-emergence, 336 h, 14 d; for pest or weed control at 35 g/ha: 35 g ai/ha; for pest or weed control at 70 g/ha: 70 g ai/ha; for pest or weed control at 140 g/ha: 140 g ai/ha
Outline: (§1)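 Plants at first-second true leaf stage, grown 7-21 d in greenhouse (~15 h photoperiod, 23-29 °C day), were track-sprayed at 187 L/ha with compound in acetone/DMSO/water/isopropanol/crop oil/Triton X-155 at a high rate plus 1/2× to 1/16× dilutions. Injury scored visually after 14 d versus untreated plants, 0 (none) to 100% (complete kill).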

[2] = tested on: Key Grass and Sedge Weeds as well as Grass Crops; assay: Post-emergent Test II herbicidal activity (Table 16); type: in vivo; conditions: post-emergence, 336 h; for pest or weed control at 35 g/ha: 35 g ai/ha; for pest or weed control at 70 g/ha: 70 g ai/ha; for pest or weed control at 140 g/ha: 140 g ai/ha
Outline: as §1

[3] = Abutilon theophrasti, velvetleaf (Abutilon theophrasti), read-out: Visual Growth Reduction (%) 14 Days After Application, ABUTH
[4] = Amaranthus retroflexus, redroot pigweed (Amaranthus retroflexus), read-out: Visual Growth Reduction (%) 14 Days After Application, AMARE
[5] = Brassica napus, oilseed rape, canola (Brassica napus), read-out: Visual Growth Reduction (%) 14 Days After Application, BRSNN
[6] = Chenopodium album, lambsquarters (Chenopodium album), read-out: Visual Growth Reduction (%) 14 Days After Application, CHEAL
[7] = Euphorbia heterophylla, wild poinsettia (Euphorbia heterophylla), read-out: Visual Growth Reduction (%) 14 Days After Application, EPHHL
[8] = Helianthus annuus, sunflower (Helianthus annuus), read-out: Visual Growth Reduction (%) 14 Days After Application, HELAN
[9] = Cyperus esculentus, yellow nutsedge (Cyperus esculentus), 14 days after application, read-out: Visual Growth Reduction (%) 14 Days After Application CYPES
[10] = Echinochloa crus-galli, barnyardgrass (Echinochloa crus-galli), 14 days after application, read-out: Visual Growth Reduction (%) 14 Days After Application ECHCG
[11] = Oryza sativa, rice (Oryza sativa), 14 days after application, read-out: Visual Growth Reduction (%) 14 Days After Application ORYSA
[12] = Setaria faberi, giant foxtail (Setaria faberi), 14 days after application, read-out: Visual Growth Reduction (%) 14 Days After Application SETFA
[13] = Triticum aestivum, wheat, spring (Triticum aestivum), 14 days after application, read-out: Visual Growth Reduction (%) 14 Days After Application TRZAS
[14] = Zea mays, maize, corn (Zea mays), 14 days after application, read-out: Visual Growth Reduction (%) 14 Days After Application ZEAMX
[15] = Cyperus esculentus, yellow nutsedge (Cyperus esculentus), 14 d, read-out: Visual Growth Reduction (%) 14 Days After Application, CYPES
[16] = Echinochloa crus-galli, barnyardgrass (Echinochloa crus-galli), 14 d, read-out: Visual Growth Reduction (%) 14 Days After Application, ECHCG
[17] = Oryza sativa, rice (Oryza sativa), 14 d, read-out: Visual Growth Reduction (%) 14 Days After Application, ORYSA
[18] = Setaria faberi, giant foxtail (Setaria faberi), 14 d, read-out: Visual Growth Reduction (%) 14 Days After Application, SETFA
[19] = Triticum aestivum, wheat, spring (Triticum aestivum), 14 d, read-out: Visual Growth Reduction (%) 14 Days After Application, TRZAS
[20] = Zea mays, maize, corn (Zea mays), 14 d, read-out: Visual Growth Reduction (%) 14 Days After Application, ZEAMX

Row | melting point | SMILES | pest or weed control at 35 g/ha [1, 3] | pest or weed control at 70 g/ha [1, 3] | pest or weed control at 140 g/ha [1, 3] | pest or weed control at 35 g/ha [1, 4] | pest or weed control at 70 g/ha [1, 4] | pest or weed control at 140 g/ha [1, 4] | pest or weed control at 35 g/ha [1, 5] | pest or weed control at 70 g/ha [1, 5] | pest or weed control at 140 g/ha [1, 5] | pest or weed control at 35 g/ha [1, 6] | pest or weed control at 70 g/ha [1, 6] | pest or weed control at 140 g/ha [1, 6] | pest or weed control at 35 g/ha [1, 7] | pest or weed control at 70 g/ha [1, 7] | pest or weed control at 140 g/ha [1, 7] | pest or weed control at 35 g/ha [1, 8] | pest or weed control at 70 g/ha [1, 8] | pest or weed control at 140 g/ha [1, 8] | further results
1 | 216 °C | COC(=O)c1nc(-c2ccc3scnc3c2)c(F)c(N)c1Cl [Compound 6.01, Methyl 4-amino-6-(benzo[d]thiazol-5-yl)-3-chloro-5-fluoropicolinate] | 85 to 94% | 85 to 94% | 85 to 94% | 85 to 94% | 95 to 100% | 95 to 100% | 95 to 100% | 95 to 100% | 95 to 100% | 95 to 100% | 95 to 100% | 95 to 100% | 0 to 29% | 85 to 94% | 95 to 100% | 85 to 94% | 85 to 94% | 85 to 94% | pest or weed control at 35 g/ha [2, 9]: 45 to 59%; pest or weed control at 70 g/ha [2, 9]: 45 to 59%; pest or weed control at 140 g/ha [2, 9]: 45 to 59%; pest or weed control at 35 g/ha [2, 10]: 0 to 29%; pest or weed control at 70 g/ha [2, 10]: 45 to 59%; pest or weed control at 140 g/ha [2, 10]: 60 to 74%; pest or weed control at 35 g/ha [2, 11]: 0 to 29%; pest or weed control at 70 g/ha [2, 11]: 0 to 29%; pest or weed control at 140 g/ha [2, 11]: 0 to 29%; pest or weed control at 35 g/ha [2, 12]: 0 to 29%; pest or weed control at 70 g/ha [2, 12]: 0 to 29%; pest or weed control at 140 g/ha [2, 12]: 0 to 29%; pest or weed control at 35 g/ha [2, 13]: 0 to 29%; pest or weed control at 70 g/ha [2, 13]: 0 to 29%; pest or weed control at 140 g/ha [2, 13]: 0 to 29%; pest or weed control at 35 g/ha [2, 14]: 0 to 29%; pest or weed control at 70 g/ha [2, 14]: 0 to 29%; pest or weed control at 140 g/ha [2, 14]: 0 to 29%
2 | 84 to 85 °C | COC(=O)c1nc(-c2ccc3sccc3c2)c(F)c(N)c1Cl [Compound 3.03] | 95 to 100% | 95 to 100% | 95 to 100% | 95 to 100% | 95 to 100% | 95 to 100% | 0 to 29% | 60 to 74% | 60 to 74% | 95 to 100% | 95 to 100% | 95 to 100% | 95 to 100% | 95 to 100% | 95 to 100% | 95 to 100% | 95 to 100% | 95 to 100% | pest or weed control at 35 g/ha [2, 15]: 45 to 59%; pest or weed control at 70 g/ha [2, 15]: 45 to 59%; pest or weed control at 140 g/ha [2, 15]: 45 to 59%; pest or weed control at 35 g/ha [2, 16]: 85 to 94%; pest or weed control at 70 g/ha [2, 16]: 95 to 100%; pest or weed control at 140 g/ha [2, 16]: 95 to 100%; pest or weed control at 35 g/ha [2, 17]: 0 to 29%; pest or weed control at 70 g/ha [2, 17]: 0 to 29%; pest or weed control at 140 g/ha [2, 17]: 0 to 29%; pest or weed control at 35 g/ha [2, 18]: 0 to 29%; pest or weed control at 70 g/ha [2, 18]: 85 to 94%; pest or weed control at 140 g/ha [2, 18]: 85 to 94%; pest or weed control at 35 g/ha [2, 19]: 0 to 29%; pest or weed control at 70 g/ha [2, 19]: 30 to 44%; pest or weed control at 140 g/ha [2, 19]: 45 to 59%; pest or weed control at 35 g/ha [2, 20]: 95 to 100%; pest or weed control at 70 g/ha [2, 20]: 95 to 100%; pest or weed control at 140 g/ha [2, 20]: 95 to 100%
